{"source": "patent US20210353784A1", "about": "“DETECTING AND TREATING CANCERS USING CELL PENETRANT MTP53-OLIGOMERIZATION-DOMAIN PEPTIDE” (priority 2020, published 2021)", "tested_on": "MDA-MB-468 and MCF7 cells", "assay": "Live cell imaging staining with Cy5 conjugated first and second-generation TAT-mtp53ODP", "assay_type": "cell-based, Human", "conditions": "500 nM, 4 h incubation", "protocol": "FIG. 7 quantifies the results of live cell imaging staining of MDA-MB-468 and MCF7 cells with 4 h incubation of 500 nM Cy5 conjugated first (TAT-mtp53ODP-35mer, SEQ ID NO: 3) and second-generation (TAT-mtp53ODP-27mer (SEQ ID NO: 7) and TAT-mtp53ODP-37mer (SEQ ID NO: 8)) after 4 h incubation. Cells were imaged by confocal microscopy. Quantification of Cy5 conjugated TAT-mtp53ODP uptake in MDA-MB-468 cells and MCF7 cells was conducted by Nikon Element analysis. […] Three independent experiments with biological replicate were performed. Statistical analyses were conducted in Graphpad Prism 9. Results are expressed as mean+SEM. Statistical significance for hypothesis testing was performed by Student's t-test. The following format was used to assign significance based on P-value: *p-value ≤0.05, ** p-value […] p-value ≤0.001.\nLive cell imaging staining was also performed on second-generation peptides based on Cy5-conjugated SEQ ID NO: 7 and SEQ ID NO: 8. FIG. 7 depicts the results of live cell imaging staining of MDA-MB-468 and MCF7 cells with 4 h incubation of 500 nM Cy5 conjugated first (TAT-mtp53ODP-35mer, SEQ ID NO: 3) and second-generation (TAT-mtp53ODP-27mer (SEQ ID NO: 7) and Cy5-conjugated TAT-mtp53ODP-37mer (SEQ ID NO: 8)) after 4 h incubation. Cells were imaged by confocal microscopy. A scrambled peptide was included as a control. […]", "note": "Ends that are not written are not given here.", "data": [{"sequence": "GRKKRRQRRGEYFTLQIRGRERFEMFR (also: Cy5 conjugate) [TAT-mtp53ODP-27mer, Cy5 conjugated second-generation TAT-mtp53ODP peptide]", "values": [{"measurement": "activity relative to TAT-mtp53ODP-35mer (SEQ ID NO: 3)", "result": "reduced activity"}]}, {"sequence": "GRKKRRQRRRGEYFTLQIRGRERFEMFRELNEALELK (also: Cy5 conjugate) [TAT-mtp53ODP-37mer, Cy5 conjugated second-generation TAT-mtp53ODP peptide]", "values": [{"measurement": "activity relative to TAT-mtp53ODP-35mer (SEQ ID NO: 3)", "result": "enhanced activity"}]}]}
